Measured values published in PubChem BioAssay (NCI).
“And” between values parts separate entries of the source, which are not always exact repeats. Equal values may be shown once.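 48-hour exposure; five concentrations; linearly interpolated endpoints. GI50 marks 50% less growth. TGI: total growth inhibition.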

How the values were obtained:
Assay in all cases: NCI anticancer screen, dose series, 48 h
SNB-19 CNS = tested on: SNB-19 CNS
SN12C renal = tested on: SN12C renal
786-0 renal = tested on: 786-0 renal
OVCAR-8 ovarian = tested on: OVCAR-8 ovarian
SW-620 colon = tested on: SW-620 colon
HL-60(TB) leukemia = tested on: HL-60(TB) leukemia
SK-MEL-5 melanoma = tested on: SK-MEL-5 melanoma
HCC-2998 colon = tested on: HCC-2998 colon
HOP-92 NSCLC = tested on: HOP-92 NSCLC
KM12 colon = tested on: KM12 colon
RXF 393 renal = tested on: RXF 393 renal

Row | SMILES | TGI (SNB-19 CNS) | TGI (SN12C renal) | TGI (786-0 renal) | TGI (OVCAR-8 ovarian) | TGI (SW-620 colon) | TGI (HL-60(TB) leukemia) | TGI (SK-MEL-5 melanoma) | TGI (HCC-2998 colon) | TGI (HOP-92 NSCLC) | TGI (KM12 colon) | TGI (RXF 393 renal) | GI50 (SK-MEL-5 melanoma) | GI50 (HCC-2998 colon) | GI50 (SNB-19 CNS) | GI50 (SN12C renal) | GI50 (OVCAR-8 ovarian) | GI50 (HL-60(TB) leukemia) | GI50 (HOP-92 NSCLC) | GI50 (RXF 393 renal)
1 | CCOC(=O)C(NC(=O)CC(C)C)(Nc1ccc(S(=O)(=O)Nc2nc(C)cc(C)n2)cc1)C(F)(F)F (stereo not drawn) | > 100 µM | > 100 µM | > 100 µM | > 100 µM | > 100 µM | > 100 µM | > 100 µM | 99.2 µM | > 100 µM | > 100 µM | > 100 µM | – | – | – | – | – | – | – | –
2 | CCCCCCCCC/C=C1\CC(CO)(COC(=O)C2CCCCC2)OC1=O (stereo not drawn) | 40.9 µM | 35.2 µM | 32.1 µM | 29.2 µM | 33.1 µM | – | 27.3 µM | 42.3 µM | 22.2 µM | 38.9 µM | 38.7 µM | – | – | – | – | – | – | – | –
3 | COc1cc(C2c3cc4c(cc3OC(Nc3ccccc3)C2C)OCO4)cc(OC)c1OC (stereo not drawn) | > 100 µM | > 100 µM | > 100 µM | > 31.6 µM | > 100 µM | 0.593 µM | – | > 26.6 µM | – | > 100 µM | > 100 µM | – | – | – | – | – | – | – | –
4 | N#Cc1c(Cl)c2ccccc2n2c1nc1ccccc12 | > 100 µM | 67 µM | 51 µM | 48.3 µM | > 100 µM | 31 µM | – | 40.1 µM | 48.2 µM | > 100 µM | 49.3 µM | – | – | – | – | – | – | – | –
5 | CCSC1=N/C(=C\c2ccco2)C(Cl)=N1 | > 100 µM | > 100 µM | > 100 µM | > 100 µM | > 100 µM | > 100 µM | > 100 µM | – | > 100 µM | > 100 µM | – | – | – | – | – | – | – | – | –
6 | O=c1oc2ccccc2c(O)c1C(c1ccc(/C=C/c2ccccc2)cc1)c1c(O)c2ccccc2oc1=O | > 100 µM | 53.9 µM | 63.8 µM | 43.8 µM | > 100 µM | > 100 µM | 74.4 µM | 45.2 µM | 53.5 µM | 64.4 µM | – | – | – | – | – | – | – | – | –
7 | C=C1CC(C)(COc2ccc3ccc(=O)oc3c2)OC1=O (stereo not drawn) | 51.9 µM | 25 µM | 7.42 µM | 19.7 µM | 4.79 µM | 2.57 µM | 6.65 µM | 6.96 µM | 4.4 µM | 17.6 µM | – | – | – | – | – | – | – | – | –
8 | Cn1c(Nc2ccccc2)c(C=Nc2ccccc2)c(=O)n(C)c1=O | – | > 100 µM | > 100 µM | > 100 µM | > 100 µM | > 100 µM | – | – | > 100 µM | > 100 µM | > 100 µM | – | – | – | – | – | – | – | –
9 | CCOC(=O)c1c(-c2ccc(O)c(OC)c2)c(C#N)c(=S)n(C2OC(COC(C)=O)C(OC(C)=O)C(OC(C)=O)C2OC(C)=O)c1-c1ccccc1 (stereo not drawn) | > 100 µM | > 100 µM | > 100 µM | – | > 100 µM | > 100 µM | 65.6 µM and > 100 µM | > 100 µM | > 100 µM | > 100 µM | > 100 µM | 21.9 µM and 47.2 µM | 35 µM and 90.1 µM | – | – | – | – | – | –
10 | O=c1[nH]nc(Cc2ccccc2)n1/N=C/c1ccccc1Cl | > 100 µM | > 100 µM | > 100 µM | > 100 µM | > 100 µM | – | > 100 µM | > 100 µM | > 100 µM | > 100 µM | 48.5 µM | – | – | – | – | – | – | – | –
11 | CCCN1CN(C(C(=O)N[C@@H]2C(=O)N3C(C(=O)O)=C(C)CSC23)c2ccc(O)cc2)CSC1=S (stereo partly drawn) | > 100 µM | > 100 µM | > 100 µM | > 100 µM | 30.8 µM | > 100 µM | > 100 µM | – | > 100 µM | > 100 µM | – | – | – | – | – | – | – | – | –
12 | O=C(O)c1ccc(Nc2nc3ccccc3nc2-c2cccs2)cc1 | – | > 100 µM | > 100 µM | > 100 µM | > 100 µM | > 100 µM | > 100 µM | > 100 µM | > 100 µM | > 100 µM | > 100 µM | – | – | – | – | – | – | – | –
13 | COc1cc(Nc2cnc3cc(F)c(F)cc3n2)cc(OC)c1 | > 100 µM | > 100 µM | > 100 µM | > 100 µM | > 100 µM | > 100 µM | > 100 µM | – | > 100 µM | > 100 µM | 51.2 µM | – | – | – | – | – | – | – | –
14 | COC(=O)c1ccccc1/C=C1\Cc2cc(C)cc(C)c2C1=O | > 100 µM | > 100 µM | > 100 µM | > 100 µM | > 100 µM | > 100 µM | > 100 µM | > 100 µM | – | > 100 µM | > 100 µM | – | – | – | – | – | – | – | –
15 | c1cn2cc(-c3ccc4ncn(C5CCCCC5)c4c3)nc(-c3ccc4c(c3)ncn4C3CCCCC3)c2n1 | 4.95 µM | 4.53 µM | – | 9.49 µM | – | 4.57 µM | 2.83 µM | 3.45 µM | 3.22 µM | – | 3 µM | 1.49 µM | 1.81 µM | 2110 nM | 2050 nM | 2550 nM | 1840 nM | 1540 nM | 1510 nM
16 | NC(=O)C(c1ccccc1)N1OC2C(=O)N(c3cccc4ccccc34)C(=O)C2C1c1c2ccccc2c(Cl)c2ccccc12 (stereo not drawn) | 18.9 µM | 16.3 µM | 21.4 µM | 19.4 µM | > 50 µM | 11.2 µM | 11.2 µM | – | 32 µM | 7.75 µM | 16.8 µM | – | – | – | – | – | – | – | –
17 | COC(=O)C1=C(\c2ccccc2)c2ccccc2C(=O)N(C2CCCCC2)/C=C\1 | > 100 µM | > 100 µM | > 100 µM | > 100 µM | > 100 µM | > 100 µM | 24.3 µM | 62 µM | 95.2 µM | 45.8 µM | – | – | – | – | – | – | – | – | –
18 | COC(=O)C(=O)C(C(=O)C(=O)Nc1ccccc1C(C)=O)c1nc2ccc(C(=O)c3ccccc3)cc2[nH]c1=O (stereo not drawn) | > 100 µM | > 100 µM | > 100 µM | > 100 µM | – | > 100 µM | > 100 µM | > 100 µM | > 100 µM | > 100 µM | > 100 µM | – | – | – | – | – | – | – | –
19 | O=C(c1cccs1)N(C(=S)N1CCN(c2ccccn2)CC1)C1CCCCC1 | > 100 µM | > 100 µM | > 100 µM | > 100 µM | > 100 µM | > 100 µM | > 100 µM | – | > 100 µM | > 100 µM | > 100 µM | – | – | – | – | – | – | – | –
20 | Cc1cc(NCCCCCCCCCC[n+]2c(C)cc(N)c3ccccc32)c2ccccc2n1 | – | 5.85 µM | 15.1 µM | 15.8 µM | 21.2 µM | – | 0.695 µM | 6.01 µM | 7.62 µM | 2.4 µM | > 100 µM | – | – | – | – | – | – | – | –
21 | C=C(Br)CN(C(C)=O)C1CCCCC1 | > 100 µM | > 100 µM | > 100 µM | > 100 µM | > 100 µM | > 100 µM | > 100 µM | > 100 µM | – | > 100 µM | > 100 µM | – | – | – | – | – | – | – | –
